Twelve compounds from PubChem BioAssay (NCI) can be followed below.

One may read the GI50 as the concentration that inhibits growth by half. The TGI is the concentration giving total growth inhibition.

“And” between values parts separate entries of the source, which are not always exact repeats. Equal entries are not always repeated.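 96-well plates; 48 h exposure; 5 concentrations. Endpoints by linear interpolation between flanking doses. Not reached: highest tested concentration assigned. GI50 is the concentration that inhibits growth by half. TGI is the concentration that stops growth completely.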 A value given as a limit tells only on which side of the number the result lay.

Common to all, as to assay: DTP human tumour cell line panel, 48 h
The test system of experiment [1] is A498 renal.
In experiment [2] the test system is A549 NSCLC.
In experiment [3] the test system is ACHN renal.
In experiment [4] the test system is COLO 205 colon.
The test system of experiment [5] is MDA-MB-435.
For experiment [6], the system named is SF-295 CNS.
Experiment [7] relates to SK-MEL-28 melanoma.
Experiment [8] has as its system SR leukemia.
In experiment [9] the test system is UACC-257 melanoma.
The subject of experiment [10] is UACC-62 melanoma.

As for `CC(C)(C)n1cc(-c2ccnc(NCCCNS(=O)(=O)c3cccc4ccccc34)c2)c(-c2cccc(O)c2)n1`, the GI50 is 1.37 µM in experiment [1]; 2.29 µM in [2]; 2.7 µM in [3]; 1.89 µM in experiment [4]; 1.76 µM in experiment [5]; 1.8 µM in experiment [6]. Also, the GI50 in [7] is 1.67 µM; in experiment [8], 1.4 µM; in [9], 2.07 µM; in [10], 1.67 µM. For the same compound, the TGI in experiment [1] worked out at 5.1 µM; in experiment [2] it was 5.99 µM; in experiment [3], 7.25 µM; in [4], 3.72 µM; in [5] it was 3.37 µM; in [6], 3.52 µM. The total growth inhibition concentration (TGI) in [7] turned out to be 3.24 µM; in [8] it was 5.65 µM; in [9] it was 4.39 µM; in experiment [10], 3.28 µM.

Take `CC/C(=C/c1ccc(OC)cc1)[N+](=O)[O-]`: the GI50 in experiment [1] is 1.87 µM; in experiment [2] it was 6.07 µM; in experiment [3], 1.71 µM; in experiment [4], 1.89 µM; in experiment [5], 1.68 µM; in experiment [6], 11.3 µM. For the same compound, the GI50 in [7] is 1.68 µM; in [8], 2.31 µM; in experiment [9], 2.07 µM; in experiment [10], 2.04 µM. Also, the total growth inhibition concentration (TGI) is 9.09 µM in experiment [1]; 19.6 µM in [2]; 3.21 µM in experiment [3]; 3.75 µM in [4]; 3.6 µM in experiment [5]; 23.3 µM in [6]. Moreover, the total growth inhibition concentration (TGI) in [7] worked out at 3.44 µM; in experiment [8] it was 7.65 µM; in experiment [9] it was 4.56 µM; in experiment [10], 4.67 µM.

Regarding `O=C1c2ccccc2C(=O)c2c1ccc1c3ccccc3n(-c3ccccc3)c21`, the concentration for total growth inhibition (TGI) in experiment [1] worked out at 71.9 µM; in experiment [2], 58.1 µM; in [3], 41.2 µM; in [4] it was 34.2 µM; in experiment [5], 26 µM; in experiment [6] it was 37.2 µM. Besides, the TGI in [7] is 34.2 µM; in [8] it was 41.9 µM; in experiment [9] it was 41.7 µM; in [10], 24.1 µM.

In the case of `O=C1c2ccccc2-c2cn(Cc3ccccc3)c3cccc(c23)C1c1cccnc1` (stereo not drawn), the GI50 in [1] is 1.34 µM; in [2], 3.2 µM; in experiment [3] it was 12.1 µM; in experiment [4], 2.26 µM; in experiment [5] it was 1.32 µM; in experiment [6], 2.02 µM. The GI50 in [7] was 4.12 µM; in experiment [8], 1.78 µM; in [9], 11.2 µM; in experiment [10], 2.73 µM. Moreover, the concentration for total growth inhibition (TGI) in [1] is 29.9 µM; in experiment [2] it was more than 50 µM; in [3] it was more than 50 µM; in [4], 9.44 µM; in experiment [5], 6.13 µM; in [6], more than 50 µM. The concentration for total growth inhibition (TGI) in experiment [7], in [8], in [9] and in [10] was more than 50 µM in each case.

On to `CCOC(=O)c1c(CN2CCCCC2)nc2ccc(Cl)cc2c1-c1ccccc1`, for which the GI50 in experiment [1] was 18.3 µM; in experiment [2], 29.6 µM; in experiment [3], 16.9 µM; in experiment [4] it was 22.9 µM; in [5], 35.1 µM; in experiment [6], 31.5 µM. The GI50 was 30.4 µM in [7], 15.7 µM in experiment [8], 22.4 µM in experiment [9] and 17.2 µM in [10]. For the same compound, the TGI is 37.7 µM in [1]; more than 100 µM in [2]; 35 µM in experiment [3]; 58.3 µM in experiment [4]; more than 100 µM in experiment [5]; 88 µM in experiment [6]. For the same compound, the TGI in experiment [7] is 88.3 µM; in experiment [8], 43.4 µM; in [9], 56.5 µM; in [10] it was 38.1 µM.

For `O=C(NOCCO)c1ccc2cncn2c1Nc1ccc(I)cc1F`, the 50% growth inhibitory concentration (GI50) in experiment [1] was 0.00606 µM and < 0.01 µM; in [2], 0.143 µM and 0.132 µM; in [3], 0.3 µM; in experiment [4], 0.00235 µM and < 0.01 µM; in experiment [5] it was 0.00756 µM and < 0.01 µM; in experiment [6], more than 56.5 µM. Moreover, the GI50 in experiment [7] was 0.003 µM and < 0.01 µM; in experiment [8], > 10 µM and 19.1 µM; in [9], 0.00234 µM and < 0.01 µM; in [10], 0.00255 µM and < 0.01 µM. In addition, the TGI in experiment [1] was 0.0542 µM and 0.043 µM; in experiment [2], more than 100 µM; in [3], more than 100 µM; in experiment [4], 0.803 µM; in experiment [5], more than 100 µM; in [6] it was more than 100 µM. Besides, the TGI was 0.0717 µM and 0.198 µM in [7]; more than 100 µM in experiment [8]; 0.0127 µM and < 0.0141 µM in [9]; 0.0343 µM and 0.0433 µM in experiment [10].

Regarding `COc1ccc2c(Cl)cc(NC(=S)Nc3ccccc3)nc2c1`, the total growth inhibition concentration (TGI) in experiment [1] is 48.1 µM; in experiment [2], more than 100 µM; in experiment [3], more than 100 µM; in experiment [4], more than 100 µM; in experiment [5], 34.6 µM; in [6], more than 100 µM. The TGI in experiment [7] was 97.9 µM; in experiment [8], 74.5 µM; in [9], more than 100 µM; in experiment [10], 46.4 µM.

As to `COC(=O)C(=O)C(C(=O)C(=O)Nc1cc(C)ccc1C)c1nc2ccccc2[nH]c1=O` (stereo not drawn), the TGI in [1], in [2], in [3], in experiment [4], in [5] and in experiment [6] was more than 100 µM throughout. Also, the concentration for total growth inhibition (TGI) in experiment [7], in [8], in experiment [9] and in experiment [10] was more than 100 µM each time.

For the compound `O=C(Nc1c[nH]c(=O)[nH]c1=O)Oc1ccccc1`, the concentration for total growth inhibition (TGI) in experiment [1], in [2], in experiment [3], in experiment [4], in experiment [5] and in experiment [6] was more than 100 µM in each case. In addition, the total growth inhibition concentration (TGI) in experiment [7], in [8], in [9] and in experiment [10] was more than 100 µM in each case.

Turning to `COc1cc(OC)c(/C=C/S(=O)(=O)Cc2ccc(OC)c(N)n2)c(OC)c1`, the 50% growth inhibitory concentration (GI50) in [1], in experiment [2], in [3], in experiment [4], in experiment [5] and in experiment [6] was less than 0.01 µM each time. Further, the results for the GI50 in experiment [8], in experiment [9] and in experiment [10] were less than 0.01 µM, more than 100 µM and less than 0.01 µM, respectively. Also, the TGI was more than 100 µM in experiment [2]; more than 100 µM in [3]; less than 0.01 µM in [4]; less than 0.01 µM in [5]; more than 100 µM in experiment [6]; more than 100 µM in experiment [7]. Also, the TGI in [8], in [9] and in experiment [10] was more than 100 µM in each case.

`Nc1nc(SCC#CCCl)c2[nH]cnc2n1`: the GI50 is 1.64 µM in experiment [1]; 7.04 µM in experiment [2]; 3.7 µM in [3]; 4.4 µM in experiment [4]; 3.81 µM in [5]; 3.65 µM in experiment [6]. Besides, the GI50 in experiment [7] was 11.7 µM; in experiment [8], 3.15 µM; in [9], 7.12 µM; in [10], 5.46 µM. Further, the TGI in experiment [1] amounted to 6.87 µM; in [2], 19.8 µM; in experiment [3], 15 µM; in [4], 14.9 µM; in [5] it was 18.6 µM; in experiment [6] it was 17.1 µM. The TGI in experiment [7] came out at 27.2 µM; in [8] it was 18.9 µM; in experiment [9], 22.5 µM; in [10] it was 18.1 µM.

Regarding `N#Cc1ccc2c(-c3ccnc(NC4CC4)n3)c(-c3ccc(F)cc3)nn2c1`, the GI50 in experiment [1], in experiment [2], in experiment [3], in experiment [4], in experiment [5] and in experiment [6] was more than 25 µM throughout. The GI50 in [7], in experiment [8], in [9] and in [10] was more than 25 µM in each case. For the same compound, the TGI in experiment [1], in experiment [2], in experiment [3], in experiment [4], in [5] and in experiment [6] was more than 25 µM each time. Moreover, the TGI in [7], in experiment [8], in [9] and in [10] was more than 25 µM throughout.
